In brackets after ≈: the same amount, converted by molar mass. Several values for one entry are separate records, joined by “and”; a condition that tells them apart may be missing. Equal entries are not always repeated. Where two headings read alike, the source gives them in different places. Where no end group is shown, it is not given here.
Key:
[1] = tested on: S. epidermidis NCTC11047; assay type: cell-based
Experimental: (§1) Antibacterial activity of fermentation samples or purified samples was determined by Mueller-Hinton Agar diffusion bioassays using M. luteus ATCC 4698 as the indicator strain. Susceptibility testing (minimum inhibitory concentration [MIC]) for all aerobic organisms, with the exception of S. pneumoniae, was performed following the recommendations of CLSI. Susceptibility testing of S. pneumoniae was performed by two-fold serial dilutions in brain-heart-infusion broth supplemented with 50 μg/ml Ca^2+. Vancomycin was used as a reference antibiotic, and plates were incubated aerobically, with shaking, for 18–20 hr at 37°C with the MIC defined as the lowest concentration of drug that prevented visible growth.

[2] = tested on: E. faecium 7131121 VRE; assay type: cell-based
Experimental: as §1

[3] = tested on: E. faecium ATCC19579; assay type: cell-based
Experimental: as §1

[4] = tested on: E. faecalis ATCC29212; assay type: cell-based
Experimental: as §1

[5] = tested on: S. pneumoniae BAA-255; assay type: cell-based, Streptococcus pneumoniae
Experimental: as §1

[6] = tested on: M. luteus ATCC4698; assay type: cell-based, Micrococcus luteus
Experimental: as §1

[7] = tested on: S. aureus SH1000; assay type: cell-based, Staphylococcus aureus
Experimental: as §1

[8] = tested on: S. aureus R33 MRSA; assay type: cell-based, Staphylococcus aureus
Experimental: as §1

[9] = tested on: panel of microorganisms (target strains); experiment: MIC determination against the panel of microorganisms (target strains); assay type: cell-based; conditions: comparison with mersacidin or with parent single mutants
Experimental: Partially purified fermentation samples from clones expressing highly produced variants were assayed for antimicrobial activity against M. luteus. Samples were fractionated to eliminate interfering bioactive compounds produced by the host strain and were bioassayed (see Supplemental Data available online). Selected mersacidin variants with antibacterial activity against M. luteus were produced at larger scale for quantitative studies (2 l). The mersacidin variants were purified and assayed against a panel of microorganisms to determine the MIC values.
as §1

[10] = tested on: methicillin-resistant Staphylococcus aureus (MRSA); conditions: administered subcutaneously; at concentrations comparable to vancomycin; ref Chatterjee et al., 1992b; cited from earlier work
Source text: (§2) Mersacidin has antibacterial activity against Gram-positive pathogens; like vancomycin, it binds to the peptidoglycan precursor lipid II ([Brotz et al., 1995; Brotz et al., 1997]).

[11] = tested on: MRSA; conditions: ref Kruszewska et al., 2004; cited from earlier work
Source text: as §2

[12] = CLSI recommendations, incubated aerobically with shaking 18–20 hr at 37°C, MIC = lowest concentration preventing visible growth, purified variants
[13] = vancomycin-resistant clinical isolate, CLSI recommendations, 18–20 hr at 37°C, MIC = lowest concentration preventing visible growth
[14] = two-fold serial dilutions in brain-heart-infusion broth with 50 μg/ml Ca2+, 18–20 hr at 37°C, MIC = lowest concentration preventing visible growth

Row | Compound | MIC S. epidermidis NCTC11047 ([1]; NCTC11047) | MIC E. faecium 7131121 VRE ([2]; 7131121 VRE) | MIC E. faecium ATCC19579 ([3]; ATCC19579) | MIC E. faecalis ATCC29212 ([4]; ATCC29212) | MIC S. pneumoniae BAA-255 ([5]; BAA-255) | MIC M. luteus ATCC4698 ([6]; ATCC4698) | MIC S. aureus SH1000 ([7]; SH1000) | MIC S. aureus R33 MRSA ([8]; R33) | MIC S. epidermidis NCTC11047 [1, 12] | MIC E. faecium 7131121 VRE [2, 13] | MIC E. faecium ATCC19579 [3, 12] | MIC E. faecalis ATCC29212 [4, 12] | MIC S. pneumoniae BAA-255 [5, 14] | MIC M. luteus ATCC4698 [6, 12] | MIC S. aureus SH1000 [7, 12] | MIC S. aureus R33 MRSA [8, 12] | antibacterial activity, in words, compared with parent [9] | cure of abscesses in rats [10] | cure of systemic MRSA infections in mice [10] | eradication of MRSA in a mouse rhinitis model [11]
1 | C=C1NC(=O)C2NC(=O)[C@H](CC(C)C)NC(=O)C(NC(=O)[C@@H]3CSC(C)C(NC(=O)[C@H](Cc4ccccc4)NC(=O)C4NC(=O)[C@@H](N)CSC4C)C(=O)N[C@@H](CC(C)C)C(=O)N4CCC[C@H]4C(=O)NCC(=O)N[C@@H](Cc4c[nH]cn4)C(=O)NCC(=O)NCC(=O)N[C@@H](C(C)C)C(=O)N3)C(C)SC[C@H](NC(=O)[C@H](CCC(=O)O)NC1=O)C(=O)N[C@@H]([C@@H](C)CC)C(=O)NC=CSC2C (some centres unmarked) [G8H] | 64 µg/mL (≈ 33.6 µM) | >64 µg/mL | >64 µg/mL | >64 µg/mL | 16 µg/mL (≈ 8.39 µM) | 8 µg/mL (≈ 4.2 µM) | 64, >64 μg/ml | 64 µg/mL (≈ 33.6 µM) | – | – | – | – | – | – | – | – | – | – | – | –
2 | C=C1NC(=O)C2NC(=O)[C@H](CC(C)C)NC(=O)C(NC(=O)[C@@H]3CSC(C)C(NC(=O)[C@H](Cc4ccccc4)NC(=O)C4NC(=O)[C@@H](N)CSC4C)C(=O)N[C@@H](CC(C)C)C(=O)N4CCC[C@H]4C(=O)NCC(=O)N[C@@H](CC(N)=O)C(=O)NCC(=O)NCC(=O)N[C@@H](C(C)C)C(=O)N3)C(C)SC[C@H](NC(=O)[C@H](CCC(=O)O)NC1=O)C(=O)N[C@@H]([C@@H](C)CC)C(=O)NC=CSC2C (some centres unmarked) [G8N] | – | – | – | – | – | – | – | – | 64 µg/mL (≈ 34 µM) | >64 µg/mL | >64 µg/mL | >64 µg/mL | >64 µg/mL | 8 µg/mL (≈ 4.25 µM) | >64 µg/mL | 16 µg/mL and 32 µg/mL | – | – | – | –
3 | C=C1NC(=O)C2NC(=O)[C@H](CC(C)C)NC(=O)C(NC(=O)[C@@H]3CSC(C)C(NC(=O)[C@H](Cc4ccccc4)NC(=O)C4NC(=O)[C@@H](N)CSC4C)C(=O)N[C@@H](CC(C)C)C(=O)N4CCC[C@H]4C(=O)NCC(=O)NCC(=O)N[C@@H](CO)C(=O)NCC(=O)N[C@@H](C(C)C)C(=O)N3)C(C)SC[C@H](NC(=O)[C@H](CCC(=O)O)NC1=O)C(=O)N[C@@H]([C@@H](C)CC)C(=O)NC=CSC2C (some centres unmarked) [G9S] | >64 µg/mL | >64 µg/mL | >64 µg/mL | >64 µg/mL | >64 µg/mL | 64 µg/mL (≈ 34.5 µM) | >64 µg/mL | 64, >64 μg/ml | – | – | – | – | – | – | – | – | – | – | – | –
4 | V11I-L14I (CTFTLPGGGGICTITSECIC; also: mersacidin methyllanthionine thioether bridges, not placed, C-terminal decarboxylated Cys (2-thioethenamine); UniProt P43683 49-68, looked up, variant V11I L14I) | – | – | – | – | – | – | – | – | – | – | – | – | – | – | – | – | comparable to those of the parent mutants | – | – | –
5 | C=C1NC(=O)C2NC(=O)[C@H](CC(C)C)NC(=O)C(NC(=O)[C@@H]3CSC(C)C(NC(=O)[C@H](Cc4ccccc4)NC(=O)C4NC(=O)[C@@H](N)CSC4C)C(=O)N[C@@H](CC(C)C)C(=O)N4CCC[C@H]4C(=O)NCC(=O)NCC(=O)NCC(=O)N[C@@H](C(C)C)C(=O)N[C@@H](C(C)C)C(=O)N3)C(C)SC[C@H](NC(=O)[C@H](CCC(=O)O)NC1=O)C(=O)N[C@@H]([C@@H](C)CC)C(=O)NC=CSC2C (some centres unmarked) [G10V] | 64 µg/mL (≈ 34.3 µM) | >64 µg/mL | >64 µg/mL | >64 µg/mL | 16 µg/mL (≈ 8.56 µM) | < 4 µg/mL | >64 µg/mL | 64, >64 μg/ml | – | – | – | – | – | – | – | – | – | – | – | –
6 | Mersacidin [reference compound] | – | – | – | – | – | – | – | – | 16 µg/mL and 32 µg/mL | 64 µg/mL | 32 µg/mL | 64 µg/mL | 2 µg/mL | 1 µg/mL and 2 µg/mL | 32 µg/mL | 32 µg/mL | – | cures | cures | eradicates MRSA
7 | F3W-L14I (CTWTLPGGGGVCTITSECIC; also: mersacidin methyllanthionine thioether bridges, not placed, C-terminal decarboxylated Cys (2-thioethenamine); UniProt P43683 49-68, looked up, variant F3W L14I) | – | – | – | – | – | – | – | – | – | – | – | – | – | – | – | – | comparable to those of the parent mutants | – | – | –
8 | C=C1NC(=O)C2NC(=O)[C@H](CC(C)C)NC(=O)C(NC(=O)[C@@H]3CSC(C)C(NC(=O)[C@H](Cc4ccccc4)NC(=O)C4NC(=O)[C@@H](N)CSC4C)C(=O)N[C@@H](CC(C)C)C(=O)N4CCC[C@H]4C(=O)NCC(=O)NCC(=O)NCC(=O)N[C@@H](CC(N)=O)C(=O)N[C@@H](C(C)C)C(=O)N3)C(C)SC[C@H](NC(=O)[C@H](CCC(=O)O)NC1=O)C(=O)N[C@@H]([C@@H](C)CC)C(=O)NC=CSC2C (some centres unmarked) [G10N] | >64 µg/mL | >64 µg/mL | >64 µg/mL | >64 µg/mL | >64 µg/mL | 8 µg/mL (≈ 4.25 µM) | >64 µg/mL | 64, >64 μg/ml | – | – | – | – | – | – | – | – | – | – | – | –
9 | C=C1NC(=O)C2NC(=O)[C@H](CC(C)C)NC(=O)C(NC(=O)[C@@H]3CSC(C)C(NC(=O)[C@H](Cc4ccccc4)NC(=O)C4NC(=O)[C@@H](N)CSC4C)C(=O)N[C@@H](CC(C)C)C(=O)N4CCC[C@H]4C(=O)NCC(=O)NCC(=O)NCC(=O)NCC(=O)N[C@@H]([C@@H](C)CC)C(=O)N3)C(C)SC[C@H](NC(=O)[C@H](CCC(=O)O)NC1=O)C(=O)N[C@@H]([C@@H](C)CC)C(=O)NC=CSC2C (some centres unmarked) [V11I] | 16 µg/mL (≈ 8.69 µM) | 16 µg/mL (≈ 8.69 µM) | 16 µg/mL (≈ 8.69 µM) | 16 µg/mL (≈ 8.69 µM) | 16 µg/mL (≈ 8.69 µM) | 0.5 µg/mL (≈ 0.272 µM) | 32 µg/mL (≈ 17.4 µM) | 16 µg/mL (≈ 8.69 µM) | – | – | – | – | – | – | – | – | – | – | – | –
10 | CC=C1NC(=O)C2NC(=O)[C@H](CC(C)C)NC(=O)C(NC(=O)[C@@H]3CSC(C)C(NC(=O)[C@H](Cc4ccccc4)NC(=O)C4NC(=O)[C@@H](N)CSC4C)C(=O)N[C@@H](CC(C)C)C(=O)N4CCC[C@H]4C(=O)NCC(=O)NCC(=O)NCC(=O)NCC(=O)N[C@@H](C(C)C)C(=O)N3)C(C)SC[C@H](NC(=O)[C@H](CCC(=O)O)NC1=O)C(=O)N[C@@H]([C@@H](C)CC)C(=O)NC=CSC2C (some centres unmarked) [S16Db] | 16 µg/mL (≈ 8.69 µM) | 64 µg/mL (≈ 34.8 µM) | 32 µg/mL (≈ 17.4 µM) | 32 µg/mL (≈ 17.4 µM) | 32 µg/mL (≈ 17.4 µM) | 1 µg/mL (≈ 0.543 µM) | 32 µg/mL (≈ 17.4 µM) | 8 µg/mL (≈ 4.35 µM) | – | – | – | – | – | – | – | – | – | – | – | –
11 | C=C1NC(=O)C2NC(=O)[C@H](CC(C)C)NC(=O)C(NC(=O)[C@@H]3CSC(C)C(NC(=O)[C@H](Cc4ccccc4)NC(=O)C4NC(=O)[C@@H](N)CSC4C)C(=O)N[C@@H](CC(C)C)C(=O)N4CCC[C@H]4C(=O)NCC(=O)NCC(=O)NCC(=O)N[C@@H](C)C(=O)N[C@@H](C(C)C)C(=O)N3)C(C)SC[C@H](NC(=O)[C@H](CCC(=O)O)NC1=O)C(=O)N[C@@H]([C@@H](C)CC)C(=O)NC=CSC2C (some centres unmarked) [G10A] | 64, >64 μg/ml | >64 µg/mL | >64 µg/mL | >64 µg/mL | 8 µg/mL (≈ 4.35 µM) | 8 µg/mL (≈ 4.35 µM) | >64 µg/mL | 64, >64 μg/ml | – | – | – | – | – | – | – | – | – | – | – | –

Source: paper PMC2706954, “Dissecting Structural and Functional Diversity of the Lantibiotic Mersacidin” (Chemistry & Biology, 2009)
